# Data reported in US20250163104A1, “MACROCYCLIC IMMUNOMODULATORS” (priority 2021, published 2025).
# pIC50: −log10 of the molar value. Where a SMILES comes first, the peptide text is derived from it. Bridges are numbered along the chain shown (N, C = ends). [ ]: non-standard residue; d: D form. The star is where a group is joined. ξ: configuration not given here. Phe(4-COOH) = N[C@@H](Cc1ccc(C(=O)O)cc1)C(=O)O; Bip = N[C@@H](Cc1ccc(-c2ccccc2)cc1)C(=O)O; Phe(3-Me) = Cc1cccc(C[C@H](N)C(=O)O)c1; ξW = NC(Cc1c[nH]c2ccccc12)C(=O)O; Cit = NC(=O)NCCC[C@H](N)C(=O)O; Carboxymethyl = O=C(O)C*; Nle = CCCC[C@H](N)C(=O)O; Orn = NCCC[C@H](N)C(=O)O; Dab = NCC[C@H](N)C(=O)O; Dap = NC[C@H](N)C(=O)O
# Target: T1, human PD-1 / PD-L1-Ig binding on Jurkat cell line over-expressing human PD-1 (Jurkat-PD-1) (Homo sapiens, UniProt Q15116)
# T1 construct: expressed in transfected cells; host or cells: Jurkat
# Assay: Jurkat-PD-1 Cell Binding High-Content Screening Assay (CBA)
# Assay type: cell-based
# Conditions: Jurkat-PD-1 cells, PE-labeled PD-L1-Ig 20 nM final; read-out: Jurkat HPD1_PDL1 IC50
# Procedure, shortened: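 Binding of fluorescent PD-L1-Ig (phycoerythrin linked via the Ig tag, 20 nM final) to PD-1-overexpressing Jurkat cells was imaged after a 2 h, 37° C compound pretreatment and 1 hour ligand incubation.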
# T1 sequence (Q15116 25-288): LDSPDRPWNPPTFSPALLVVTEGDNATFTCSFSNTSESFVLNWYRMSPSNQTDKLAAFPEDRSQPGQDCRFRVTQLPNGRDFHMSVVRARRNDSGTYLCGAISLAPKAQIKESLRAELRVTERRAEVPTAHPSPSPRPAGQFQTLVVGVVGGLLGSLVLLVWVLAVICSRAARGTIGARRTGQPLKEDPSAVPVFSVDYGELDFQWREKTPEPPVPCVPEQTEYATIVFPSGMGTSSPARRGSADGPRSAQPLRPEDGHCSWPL
row,Structure (SMILES),pIC50
1,Cc1cccc(C[C@@H]2NC(=O)[C@H](CC(=O)O)NC(=O)[C@H](Cc3ccc(OCC(=O)O)cc3)NC(=O)[C@H](Cc3ccncc3)NC(=O)CSC[C@@H](C(=O)N[C@@H](C)C(N)=O)NC(=O)[C@H]([C@@H](C)O)NC(=O)[C@H](C(C)C)NC(=O)[C@H](CC3CCCCC3)NC(=O)[C@H](CCN)NC(=O)[C@@H](CC(C)C)NC(=O)[C@H](CCCN)NC(=O)[C@H](C(C)C)NC(=O)[C@H](Cc3ccc(-c4ccccc4)cc3)NC(=O)[C@H](C(C)C)NC2=O)c1 [Compound 1200],8.27
2,CCCC[C@@H]1NC(=O)[C@H](CCN)NC(=O)[C@@H](CC(C)C)NC(=O)[C@H](CCCN)NC(=O)[C@H](CCCNC(N)=O)NC(=O)[C@H](Cc2ccc(-c3ccccc3)cc2)NC(=O)[C@H](C(C)C)NC(=O)[C@H](Cc2cccc(C)c2)NC(=O)[C@H](CC(=O)O)NC(=O)[C@H](Cc2ccc(C(=O)O)cc2)NC(=O)[C@H](CN)NC(=O)CSC[C@@H](C(=O)N[C@@H](C)C(N)=O)NC(=O)[C@H]([C@@H](C)O)NC(=O)[C@H](C(C)C)NC1=O [Compound 1201] ({CH2CO}-[Dap][Phe(4-COOH)]D[Phe(3-Me)]V[Bip][Cit][Orn][dL][Dab][Nle]VTCA-NH2; thioether N-14),8.47
3,Cc1cccc(C[C@@H]2NC(=O)[C@H](CC(=O)O)NC(=O)[C@H](Cc3ccc(C(=O)O)cc3)NC(=O)[C@H](CN)NC(=O)CSC[C@@H](C(=O)N[C@@H](C)C(N)=O)NC(=O)[C@H]([C@@H](C)O)NC(=O)[C@H](C(C)C)NC(=O)[C@H](CC3CCCCC3)NC(=O)[C@H](CCN)NC(=O)[C@@H](CC(C)C)NC(=O)[C@H](CCCN)NC(=O)[C@H](CCCNC(N)=O)NC(=O)[C@H](Cc3ccc(-c4ccccc4)cc3)NC(=O)[C@H](C(C)C)NC2=O)c1 [Compound 1202],8.01
4,CCCC[C@@H]1NC(=O)[C@H](CCN)NC(=O)[C@@H](CC(C)C)NC(=O)[C@H](CCCN)NC(=O)[C@H]([C@@H](C)CC)NC(=O)[C@H](Cc2ccc(-c3ccccc3)cc2)NC(=O)[C@H](C(C)C)NC(=O)[C@H](Cc2cccc(C)c2)NC(=O)[C@H](CC(=O)O)NC(=O)[C@H](Cc2ccc(C(=O)O)cc2)NC(=O)[C@H](CN)NC(=O)CSC[C@@H](C(=O)N[C@@H](C)C(N)=O)NC(=O)[C@H]([C@@H](C)O)NC(=O)[C@H](C(C)C)NC1=O [Compound 1203],7.32
5,CC[C@H](C)[C@@H]1NC(=O)[C@H](Cc2ccc(-c3ccccc3)cc2)NC(=O)[C@H](C(C)C)NC(=O)[C@H](Cc2cccc(C)c2)NC(=O)[C@H](CC(=O)O)NC(=O)[C@H](Cc2ccc(C(=O)O)cc2)NC(=O)[C@H](CN)NC(=O)CSC[C@@H](C(=O)N[C@@H](C)C(N)=O)NC(=O)[C@H]([C@@H](C)O)NC(=O)[C@H](C(C)C)NC(=O)[C@H](CC2CCCCC2)NC(=O)[C@H](CCN)NC(=O)[C@@H](CC(C)C)NC(=O)[C@H](CCCN)NC1=O [Compound 1204],8.24
6,CCCC[C@@H]1NC(=O)[C@H](CCN)NC(=O)[C@@H](CC(C)C)NC(=O)[C@H](CCCN)NC(=O)[C@H](C(C)C)NC(=O)[C@H](Cc2ccc(-c3ccccc3)cc2)NC(=O)[C@H](C(C)C)NC(=O)[C@H](Cc2cccc(C)c2)NC(=O)[C@H](CC(=O)O)NC(=O)[C@H](Cc2ccc(C(=O)O)cc2)NC(=O)[C@H](CN)NC(=O)CSC[C@@H](C(=O)N[C@@H](C)C(N)=O)NC(=O)[C@H]([C@@H](C)O)NC(=O)[C@H](C(C)C)NC1=O [Compound 1205] ({CH2CO}-[Dap][Phe(4-COOH)]D[Phe(3-Me)]V[Bip]V[Orn][dL][Dab][Nle]VTCA-NH2; thioether N-14),7.97
7,Cc1cccc(C[C@@H]2NC(=O)[C@H](CC(=O)O)NC(=O)[C@H](Cc3ccc(C(=O)O)cc3)NC(=O)[C@H](CN)NC(=O)CSC[C@@H](C(=O)N[C@@H](C)C(N)=O)NC(=O)[C@H]([C@@H](C)O)NC(=O)[C@H](C(C)C)NC(=O)[C@H](CC3CCCCC3)NC(=O)[C@H](CCN)NC(=O)[C@@H](CC(C)C)NC(=O)[C@H](CCCN)NC(=O)[C@H](C(C)C)NC(=O)[C@H](Cc3ccc(-c4ccccc4)cc3)NC(=O)[C@H](C(C)C)NC2=O)c1 [Compound 1206],8.05
8,CCCC[C@@H]1NC(=O)[C@H](CCN)NC(=O)[C@@H](CC(C)C)NC(=O)[C@H](CCCN)NC(=O)[C@H](CCCNC(N)=O)NC(=O)[C@H](Cc2ccc(-c3ccccc3)cc2)NC(=O)[C@H](C(C)C)NC(=O)[C@H](Cc2cccc(C)c2)NC(=O)[C@H](CC(=O)O)NC(=O)[C@H](Cc2ccc(OCC(=O)O)cc2)NC(=O)[C@H](CN)NC(=O)CSC[C@@H](C(=O)N[C@@H](C)C(N)=O)NC(=O)[C@H]([C@@H](C)O)NC(=O)[C@H](C(C)C)NC1=O [Compound 1207] ({CH2CO}-[Dap]Y(Carboxymethyl)D[Phe(3-Me)]V[Bip][Cit][Orn][dL][Dab][Nle]VTCA-NH2; thioether N-14),8.17
9,Cc1cccc(C[C@@H]2NC(=O)[C@H](CC(=O)O)NC(=O)[C@H](Cc3ccc(OCC(=O)O)cc3)NC(=O)[C@H](CN)NC(=O)CSC[C@@H](C(=O)N[C@@H](C)C(N)=O)NC(=O)[C@H]([C@@H](C)O)NC(=O)[C@H](C(C)C)NC(=O)[C@H](CC3CCCCC3)NC(=O)[C@H](CCN)NC(=O)[C@@H](CC(C)C)NC(=O)[C@H](CCCN)NC(=O)[C@H](CCCNC(N)=O)NC(=O)[C@H](Cc3ccc(-c4ccccc4)cc3)NC(=O)[C@H](C(C)C)NC2=O)c1 [Compound 1208],8.57
10,CCCC[C@@H]1NC(=O)[C@H](CCN)NC(=O)[C@@H](CC(C)C)NC(=O)[C@H](CCCN)NC(=O)[C@H]([C@@H](C)CC)NC(=O)[C@H](Cc2ccc(-c3ccccc3)cc2)NC(=O)[C@H](C(C)C)NC(=O)[C@H](Cc2cccc(C)c2)NC(=O)[C@H](CC(=O)O)NC(=O)[C@H](Cc2ccc(OCC(=O)O)cc2)NC(=O)[C@H](CN)NC(=O)CSC[C@@H](C(=O)N[C@@H](C)C(N)=O)NC(=O)[C@H]([C@@H](C)O)NC(=O)[C@H](C(C)C)NC1=O [Compound 1209],8.00
11,CC[C@H](C)[C@@H]1NC(=O)[C@H](Cc2ccc(-c3ccccc3)cc2)NC(=O)[C@H](C(C)C)NC(=O)[C@H](Cc2cccc(C)c2)NC(=O)[C@H](CC(=O)O)NC(=O)[C@H](Cc2ccc(OCC(=O)O)cc2)NC(=O)[C@H](CN)NC(=O)CSC[C@@H](C(=O)N[C@@H](C)C(N)=O)NC(=O)[C@H]([C@@H](C)O)NC(=O)[C@H](C(C)C)NC(=O)[C@H](CC2CCCCC2)NC(=O)[C@H](CCN)NC(=O)[C@@H](CC(C)C)NC(=O)[C@H](CCCN)NC1=O [Compound 1210],7.94
12,CCCC[C@@H]1NC(=O)[C@H](CCN)NC(=O)[C@@H](CC(C)C)NC(=O)[C@H](CCCN)NC(=O)[C@H](C(C)C)NC(=O)[C@H](Cc2ccc(-c3ccccc3)cc2)NC(=O)[C@H](C(C)C)NC(=O)[C@H](Cc2cccc(C)c2)NC(=O)[C@H](CC(=O)O)NC(=O)[C@H](Cc2ccc(OCC(=O)O)cc2)NC(=O)[C@H](CN)NC(=O)CSC[C@@H](C(=O)N[C@@H](C)C(N)=O)NC(=O)[C@H]([C@@H](C)O)NC(=O)[C@H](C(C)C)NC1=O [Compound 1211] ({CH2CO}-[Dap]Y(Carboxymethyl)D[Phe(3-Me)]V[Bip]V[Orn][dL][Dab][Nle]VTCA-NH2; thioether N-14),8.05
13,Cc1cccc(C[C@@H]2NC(=O)[C@H](CC(=O)O)NC(=O)[C@H](Cc3ccc(OCC(=O)O)cc3)NC(=O)[C@H](CN)NC(=O)CSC[C@@H](C(=O)N[C@@H](C)C(N)=O)NC(=O)[C@H]([C@@H](C)O)NC(=O)[C@H](C(C)C)NC(=O)[C@H](CC3CCCCC3)NC(=O)[C@H](CCN)NC(=O)[C@@H](CC(C)C)NC(=O)[C@H](CCCN)NC(=O)[C@H](C(C)C)NC(=O)[C@H](Cc3ccc(-c4ccccc4)cc3)NC(=O)[C@H](C(C)C)NC2=O)c1 [Compound 1212],8.22
14,CC(C)C[C@@H]1NC(=O)C(Cc2c[nH]c3ccccc23)NC(=O)[C@H](CC(=O)O)NC(=O)[C@H](Cc2ccc(O)cc2)NC(=O)[C@H](Cc2ccccc2)NC(=O)CSC[C@@H](C(=O)N[C@@H](C)C(N)=O)NC(=O)[C@H]([C@@H](C)O)NC(=O)[C@H](C(C)C)NC(=O)[C@H](CC(C)C)NC(=O)[C@H](CC(N)=O)NC(=O)[C@@H](CC(C)C)NC(=O)[C@H](CN)NC(=O)[C@H](C(C)C)NC(=O)[C@H](Cc2ccc(-c3ccccc3)cc2)NC1=O (stereo partly drawn) [Compound 1213] ({CH2CO}-FYD[ξW]L[Bip]V[Dap][dL]NLVTCA-NH2; thioether N-14),7.68
15,CC(C)C[C@@H]1NC(=O)C(Cc2c[nH]c3ccccc23)NC(=O)[C@H](CC(=O)O)NC(=O)[C@H](Cc2ccc(O)cc2)NC(=O)[C@H](Cc2ccccc2)NC(=O)CSC[C@@H](C(=O)N[C@@H](C)C(N)=O)NC(=O)[C@H](CO)NC(=O)[C@H](C(C)C)NC(=O)[C@H](CC(C)C)NC(=O)[C@H](CC(N)=O)NC(=O)[C@@H](CC(C)C)NC(=O)[C@H](CCN)NC(=O)[C@H](C(C)C)NC(=O)[C@H](Cc2ccc(-c3ccccc3)cc2)NC1=O (stereo partly drawn) [Compound 1214] ({CH2CO}-FYD[ξW]L[Bip]V[Dab][dL]NLVSCA-NH2; thioether N-14),7.85
16,CC(C)C[C@@H]1NC(=O)C(Cc2c[nH]c3ccccc23)NC(=O)[C@H](CC(=O)O)NC(=O)[C@H](Cc2ccc(O)cc2)NC(=O)[C@H](Cc2ccccc2)NC(=O)CSC[C@@H](C(=O)NCC(N)=O)NC(=O)[C@H]([C@@H](C)O)NC(=O)[C@H](C(C)C)NC(=O)[C@H](CC(C)C)NC(=O)[C@H](CC(N)=O)NC(=O)[C@@H](CC(C)C)NC(=O)[C@H](CCN)NC(=O)[C@H](C(C)C)NC(=O)[C@H](Cc2ccc(-c3ccccc3)cc2)NC1=O (stereo partly drawn) [Compound 1215] ({CH2CO}-FYD[ξW]L[Bip]V[Dab][dL]NLVTCG-NH2; thioether N-14),7.33
17,CC[C@H](C)[C@@H]1NC(=O)[C@H](Cc2ccc(-c3ccccc3)cc2)NC(=O)[C@H](CC(C)C)NC(=O)C(Cc2c[nH]c3ccccc23)NC(=O)[C@H](CC(=O)O)NC(=O)[C@H](Cc2ccc(O)cc2)NC(=O)[C@H](Cc2ccccc2)NC(=O)CSC[C@@H](C(=O)N[C@@H](C)C(N)=O)NC(=O)[C@H](CO)NC(=O)[C@H](C(C)C)NC(=O)[C@H](CC(C)C)NC(=O)[C@H](CC(N)=O)NC(=O)[C@@H](CC(C)C)NC(=O)[C@H](CN)NC1=O (stereo partly drawn) [Compound 1216] ({CH2CO}-FYD[ξW]L[Bip]I[Dap][dL]NLVSCA-NH2; thioether N-14),7.65
